Data taken from publication PMC8380238, “Structure-based virtual screening of CYP1A1 inhibitors: towards rapid tier-one assessment of potential developmental toxicants” (Archives of Toxicology, 2021).
pIC50, pKi: −log10 of the molar value. Where a name gives a salt, the structure may show the parent alone. Read-outs that look alike come from different tables or passages of the source.

Experiments:
human CYP1A1 = system: human CYP1A1; parameters: unit not given beside the values; conditions: cited from earlier work
[1] = target: T1, human recombinant CYP1A1 (rCYP1A1) (Homo sapiens, UniProt P04798)
T1 sequence (P04798 1-512): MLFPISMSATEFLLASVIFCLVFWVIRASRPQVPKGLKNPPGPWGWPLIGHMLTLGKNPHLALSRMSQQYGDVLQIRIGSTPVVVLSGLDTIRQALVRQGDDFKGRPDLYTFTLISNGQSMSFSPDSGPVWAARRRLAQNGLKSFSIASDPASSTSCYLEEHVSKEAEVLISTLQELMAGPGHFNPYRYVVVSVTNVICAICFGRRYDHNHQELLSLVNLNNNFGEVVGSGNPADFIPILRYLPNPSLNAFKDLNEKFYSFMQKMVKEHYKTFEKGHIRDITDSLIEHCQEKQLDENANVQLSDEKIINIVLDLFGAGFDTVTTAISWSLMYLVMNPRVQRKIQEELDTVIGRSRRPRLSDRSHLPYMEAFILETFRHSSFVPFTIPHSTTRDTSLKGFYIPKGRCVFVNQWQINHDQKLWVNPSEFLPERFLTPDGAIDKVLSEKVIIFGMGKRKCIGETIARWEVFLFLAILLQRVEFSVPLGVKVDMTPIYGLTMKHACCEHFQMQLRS

[2] = target: T1, human recombinant CYP1A1 (rCYP1A1); assay: CYP1A1 activity assay: inhibition of CEC metabolism (IC50)
[3] = target: T1, human recombinant CYP1A1 (rCYP1A1); assay: CYP1A1 activity assay repeated at six CEC concentrations (Ki, α, mode of inhibition)
[4] = CYP1A1 IC50 (range of colour key, Fig. 5a)

O=[N+]([O-])c1c(Cl)c(Cl)c(Cl)c(Cl)c1Cl [Pentachloronitrobenzene]
AC50 (human CYP1A1): -0.9415

COP(=S)(OC)SCn1nnc2ccccc2c1=O [Azinphos-methyl]
AC50 (human CYP1A1): -0.4803

CC(C)(C)C(=O)C(Oc1ccc(Cl)cc1)n1cncn1 (stereo not shown) [Triadimefon]
AC50 (human CYP1A1): 0.3192

CN(C)c1ccc(Cc2ccc(N(C)C)cc2)cc1 [4,4'-Methylenebis(N,N-dimethylaniline)]
AC50 (human CYP1A1): 0.5763

CC(=O)O[C@]1(C(C)=O)CC[C@H]2[C@@H]3C=C(Cl)C4=CC(=O)[C@@H]5C[C@@H]5[C@]4(C)[C@H]3CC[C@@]21C [Cyproterone acetate, reference compound]
MOI (mode of inhibition) [1]: Competitive
pIC50 [2, 4]: 5.00 to 6.00
pIC50 ([2]; IC50): 5.00
α (degree to which the binding of inhibitor changes the affinity of the enzyme for substrate) [3]: 7
pKi ([3]; CYP1A1 Ki (range of colour key, Fig. 5b), range assigned by colour of the point): 5.00 to 6.00
pKi ([3]; Ki, CEC 1.56-50.0 µM): 5.06

Chlorpyrifos oxon
AC50 (human CYP1A1): 0.9288

CC(C)NC(=O)N1CC(=O)N(c2cc(Cl)cc(Cl)c2)C1=O [Iprodione]
AC50 (human CYP1A1): 0.8242

CNc1cnn(-c2cccc(C(F)(F)F)c2)c(=O)c1Cl [Norflurazon]
AC50 (human CYP1A1): 0.8239

C=C(C)[C@H]1Cc2c(ccc3c2O[C@@H]2COc4cc(OC)c(OC)cc4[C@@H]2C3=O)O1 [Rotenone]
AC50 (human CYP1A1): 0.8835

CCCCCCCCn1sc(Cl)c(Cl)c1=O [4,5-Dichloro-2-octyl-3(2H)-isothiazolone]
AC50 (human CYP1A1): 0.9038

CCOP(=O)(NC(C)C)Oc1ccc(SC)c(C)c1 (stereo not shown) [Fenamiphos]
AC50 (human CYP1A1): 0.6838

C#CC(C)(C)NC(=O)c1cc(Cl)cc(Cl)c1 [Propyzamide]
AC50 (human CYP1A1): 0.363

c1ccc(C(O[C@@H]2CCCN(CCc3ccc4c(c3)OCO4)C2)c2ccccc2)cc1 [Zamifenacin]
AC50 (human CYP1A1; NVS_ADME_hCYP1A1, values appear to be log10, ref ToxCast): 0.759

C=CCOC(Cn1ccnc1)c1ccc(Cl)cc1Cl (stereo not shown) [Imazalil]
AC50 (human CYP1A1): 0.1501

CC1COC(Cn2cncn2)(c2ccc(Oc3ccc(Cl)cc3)cc2Cl)O1 (stereo not shown) [Difenoconazole]
AC50 (human CYP1A1): 0.1639

CCCCOC(=O)c1ccccc1C(=O)OCCCC [Dibutyl phthalate]
MOI (mode of inhibition) [1]: Competitive
pIC50 [2, 4]: 4.00 to 5.00
pIC50 ([2]; IC50): 5.00
α (degree to which the binding of inhibitor changes the affinity of the enzyme for substrate) [3]: 13
pKi ([3]; CYP1A1 Ki (range of colour key, Fig. 5b)): 5.00 to 6.00
pKi ([3]; Ki): 5.80

CC1=C(/C=C/C(C)=C/C=C/C(C)=C/C(=O)O)C(C)(C)CCC1 [all-trans-Retinoic acid]
AC50 (human CYP1A1; ToxCast NVS_ADME_hCYP1A1, NA = no AC50, ref ToxCast): 0.1194

COC(=O)N(OC)c1ccccc1COc1ccn(-c2ccc(Cl)cc2)n1 [Pyraclostrobin]
AC50 (human CYP1A1): 0.2248

CCNc1nc(Cl)nc(NC(C)C)n1 [Atrazine]
AC50 (human CYP1A1): 0.9162

O=C(Nc1ccccc1)c1ccccc1I [Benodanil]
AC50 (human CYP1A1): -1.884

Cc1cc(N=Nc2ccccc2C)ccc1N [2-Amino-5-azotoluene]
AC50 (human CYP1A1): 0.8236

COc1ccc(C(=CC(=O)N2CCOCC2)c2ccc(Cl)cc2)cc1OC [Dimethomorph]
AC50 (human CYP1A1): 0.8349

c1ccc2[nH]c(-c3cscn3)nc2c1 [Thiabendazole]
AC50 (human CYP1A1): 0.674

Nc1ccc(-c2ccc(N)cc2)cc1 [Benzidine]
AC50 (human CYP1A1): 0.5505

C[C@H]1CCCC(=O)CCC/C=C/c2cc(O)cc(O)c2C(=O)O1 [Zearalenone]
MOI (mode of inhibition) [1]: Mixed
pIC50 ([2]; IC50): 6.15
α (degree to which the binding of inhibitor changes the affinity of the enzyme for substrate) [3]: 3.5
pKi ([3]; Ki): 6.18

OC(c1ccc(Cl)cc1)(c1cncnc1)c1ccccc1Cl (stereo not shown) [Fenarimol]
AC50 (human CYP1A1): 0.89

COP(=S)(OC)SCN1C(=O)c2ccccc2C1=O [Phosmet]
AC50 (human CYP1A1): 0.5339

CCCCOCCOCCOCc1cc2c(cc1CCC)OCO2 [Piperonyl butoxide]
AC50 (human CYP1A1): 0.8015

CC1(C)CCC(=Cc2ccc(Cl)cc2)C1(O)Cn1cncn1 (stereo not shown) [Triticonazole]
AC50 (human CYP1A1): -0.101

CCCN(CCOc1c(Cl)cc(Cl)cc1Cl)C(=O)n1ccnc1 [Prochloraz]
AC50 (human CYP1A1): -0.384

O=[N+]([O-])C(Br)(CO)CO [Bronopol]
AC50 (human CYP1A1): 0.9179

COc1cc(-c2ccc(N)c(OC)c2)ccc1N [3,3'-Dimethoxybenzidine]
AC50 (human CYP1A1): 0.5453

Cc1[nH]cnc1C[C@H]1CCc2c(C)c3ccccc3n2C1=O.Cl [Fabesetron hydrochloride]
AC50 (human CYP1A1): 0.583

CN(C)c1ccc(C(=C2C=CC(=[N+](C)C)C=C2)c2ccc(N(C)C)cc2)cc1 [Gentian Violet]
AC50 (human CYP1A1): 0.2591

N#CC(CCc1ccc(Cl)cc1)(Cn1cncn1)c1ccccc1 (stereo not shown) [Fenbuconazole]
AC50 (human CYP1A1): -0.05845

O=C(Nc1ccccc1)Nc1ccnc(Cl)c1 [Forchlorfenuron]
AC50 (human CYP1A1): 0.9909

CC#Cc1cc(C)nc(Nc2ccccc2)n1 [Mepanipyrim]
AC50 (human CYP1A1): -0.2464

COP(=S)(OC)Oc1ccc([N+](=O)[O-])cc1 [Methyl parathion]
AC50 (human CYP1A1): 0.8544

CCCC1COC(Cn2cncn2)(c2ccc(Cl)cc2Cl)O1 (stereo not shown) [Propiconazole]
AC50 (human CYP1A1): 0.9547

Sc1nc2ccccc2s1 [2-Mercaptobenzothiazole]
AC50 (human CYP1A1): -0.7864

CON(C)C(=O)Nc1ccc(Cl)c(Cl)c1 [Linuron]
AC50 (human CYP1A1): 0.4776

Oc1ccc2ccc3cccc4ccc1c2c34 [1-Hydroxypyrene]
AC50 (human CYP1A1): 0.4188

Oc1cc2ccccc2c2ccccc12 [9-Phenanthrol]
AC50 (human CYP1A1): 0.7409

C[C@]12CC[C@H](O)CC1=CC[C@@H]1[C@@H]2CC[C@]2(C)C(=O)CC[C@@H]12 [DHEA, dehydroepiandrosterone]
pIC50 [2, 4]: 3.00 to 4.00
pIC50 ([2]; IC50): 3.89

CSC(C)(C)C=NO [Aldicarb oxime]
AC50 (human CYP1A1): 0.7517

CC(C)(O)c1coc(S(=O)(=O)NC(=O)Nc2c3c(cc4c2CCC4)CCC3)c1 [CP-456773]
AC50 (human CYP1A1): -1.144

CCOP(=S)(OCC)Oc1ccc([N+](=O)[O-])cc1 [Parathion]
AC50 (human CYP1A1): 0.5508

COC(=O)c1c(Cl)c(Cl)c(C(=O)OC)c(Cl)c1Cl [Chlorthal-dimethyl]
AC50 (human CYP1A1; ToxCast NVS_ADME_hCYP1A1, NA cells left out, ref ToxCast): -0.9489

Nc1cccc2c(N)cccc12 [1,5-Naphthalenediamine]
AC50 (human CYP1A1): 0.8388

CCOP(=S)(OCC)Oc1ccc2c(C)c(Cl)c(=O)oc2c1 [Coumaphos]
AC50 (human CYP1A1): -0.5619

O=c1[nH]sc2ccccc12 [1,2-Benzisothiazolin-3-one]
AC50 (human CYP1A1): 0.7251

CCOP(=S)(OCC)SCSCC [Phorate]
AC50 (human CYP1A1): 0.6456

CCOP(=S)(OCC)SCn1c(=O)oc2cc(Cl)ccc21 [Phosalone]
AC50 (human CYP1A1): -0.311

CCNP(=S)(OC)O/C(C)=C/C(=O)OC(C)C (stereo not shown) [Propetamphos]
AC50 (human CYP1A1): 0.3484

CC(C)(C#N)c1cc(Cn2cncn2)cc(C(C)(C)C#N)c1 [Anastrozole, reference compound]
pIC50 [2, 4]: 3.00 to 4.00
pIC50 ([2]; IC50): 3.72

Oc1ccc2c(c1)-c1ccccc1C2 [3-Hydroxyfluorene]
AC50 (human CYP1A1): 0.7484

CS/C(C)=N\OC(=O)N(C)SN(C)C(=O)O/N=C(\C)SC [Thiodicarb]
AC50 (human CYP1A1): 0.9955

CSc1nc(NC(C)C)nc(NC(C)C)n1 [Prometryn]
AC50 (human CYP1A1): 0.888

CN(C)CCCN1c2ccccc2Sc2ccc(Cl)cc21 [Chlorpromazine hydrochloride]
AC50 (human CYP1A1): 0.7565

COC(=O)[C@H]1[C@H]2C[C@@H]3c4[nH]c5cc(OC)ccc5c4CCN3C[C@H]2C[C@@H](OC(=O)c2cc(OC)c(OC)c(OC)c2)[C@@H]1OC [Reserpine]
AC50 (human CYP1A1): -0.938

CCOC(=O)C(Cl)Cc1cc(-n2nc(C)n(C(F)F)c2=O)c(F)cc1Cl (stereo not shown) [Carfentrazone-ethyl]
AC50 (human CYP1A1): 0.8125

C#CCOC(=O)[C@@H](C)Oc1ccc(Oc2ncc(Cl)cc2F)cc1 [Clodinafop-propargyl]
AC50 (human CYP1A1): 0.4557

CCCCN(CCCC)SN(C)C(=O)Oc1cccc2c1OC(C)(C)C2 [Carbosulfan]
AC50 (human CYP1A1): 0.7573

Oc1ccc(C(c2ccc(O)cc2)C(Cl)(Cl)Cl)cc1
AC50 (human CYP1A1): 0.8687

CCOC(=O)CC(SP(=S)(OC)OC)C(=O)OCC (stereo not shown) [Malathion]
AC50 (human CYP1A1): 0.4737

C=CCc1cc(S(=O)(=O)c2ccc(O)c(CC=C)c2)ccc1O
AC50 (human CYP1A1): 0.2892

COc1ccc(-c2ccccc2)cc1NNC(=O)OC(C)C [Bifenazate]
AC50 (human CYP1A1): -0.1841

C[C@]12CC[C@@H]3c4ccc(O)cc4CC[C@H]3[C@@H]1[C@@H](O)[C@@H](O)[C@@H]2O [Estetrol]
pIC50 ([2]; CYP1A1 IC50 (range of colour key, Fig. 5a), 5 µM CEC, range assigned by colour of the point): 3.00 to 4.00
pIC50 ([2]; IC50, 5 µM CEC, maximum tested concentration 200 µM (ketoconazole 20 µM), ∞ = the best fitted model was the constant model): < 3.70

O=C(c1ccc(OCCN2CCCCC2)cc1)c1c(-c2ccc(O)cc2)sc2cc(O)ccc12 [Raloxifene hydrochloride]
AC50 (human CYP1A1): 0.811

COc1nn(CSP(=S)(OC)OC)c(=O)s1 [Methidathion]
AC50 (human CYP1A1): 0.6887

CCCOC/C(=N\c1ccc(Cl)cc1C(F)(F)F)n1ccnc1 [Triflumizole]
AC50 (human CYP1A1): 0.6164

CCNc1nc(Cl)nc(NCC)n1 [Simazine]
AC50 (human CYP1A1): 0.05448
